Measured values: PubChem BioAssay (NCI)
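Dose response: 5 concentrations. Exposure: 48 h. Format: 96-well plates. Endpoint: linear interpolation; highest concentration if not reached. GI50 = concentration required for 50% inhibition of growth. The concentration for full growth arrest is given as TGI.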

What was measured:
Assay in all cases: DTP human tumour cell line panel, 48 h
NCI-H460 lung = test system: NCI-H460 lung
MDA-MB-435 = test system: MDA-MB-435
K-562 leukemia = test system: K-562 leukemia
HCC-2998 colon = test system: HCC-2998 colon
MALME-3M melanoma = test system: MALME-3M melanoma
OVCAR-8 ovarian = test system: OVCAR-8 ovarian
SW-620 colon = test system: SW-620 colon
NCI-H522 lung = test system: NCI-H522 lung
SF-295 CNS = test system: SF-295 CNS
HCT-15 colon = test system: HCT-15 colon
SR leukemia = test system: SR leukemia
COLO 205 colon = test system: COLO 205 colon
SN12C renal = test system: SN12C renal
OVCAR-5 ovarian = test system: OVCAR-5 ovarian
BT-549 breast = test system: BT-549 breast
RPMI-8226 leukemia = test system: RPMI-8226 leukemia
SF-539 CNS = test system: SF-539 CNS
786-0 renal = test system: 786-0 renal
NCI-H226 lung = test system: NCI-H226 lung
SNB-19 CNS = test system: SNB-19 CNS
UACC-62 melanoma = test system: UACC-62 melanoma
NCI/ADR-RES ovarian = test system: NCI/ADR-RES ovarian
SK-OV-3 ovarian = test system: SK-OV-3 ovarian
TK-10 renal = test system: TK-10 renal
LOX IMVI melanoma = test system: LOX IMVI melanoma
A549 NSCLC = test system: A549 NSCLC
PC-3 prostate = test system: PC-3 prostate
SK-MEL-2 melanoma = test system: SK-MEL-2 melanoma
HS 578T breast = test system: HS 578T breast
SK-MEL-5 melanoma = test system: SK-MEL-5 melanoma
MCF7 breast = test system: MCF7 breast
MOLT-4 leukemia = test system: MOLT-4 leukemia
SK-MEL-28 melanoma = test system: SK-MEL-28 melanoma
HL-60(TB) leukemia = test system: HL-60(TB) leukemia
MDA-MB-231 breast = test system: MDA-MB-231 breast
IGROV1 ovarian = test system: IGROV1 ovarian
SF-268 CNS = test system: SF-268 CNS
U251 CNS = test system: U251 CNS
HT29 colon = test system: HT29 colon
M14 melanoma = test system: M14 melanoma
KM12 colon = test system: KM12 colon
T-47D breast = test system: T-47D breast
A498 renal = test system: A498 renal
UO-31 renal = test system: UO-31 renal
ACHN renal = test system: ACHN renal
UACC-257 melanoma = test system: UACC-257 melanoma
HOP-62 NSCLC = test system: HOP-62 NSCLC
NCI-H23 lung = test system: NCI-H23 lung
HCT-116 colon = test system: HCT-116 colon
OVCAR-3 ovarian = test system: OVCAR-3 ovarian
DU-145 prostate = test system: DU-145 prostate
EKVX NSCLC = test system: EKVX NSCLC
CAKI-1 renal = test system: CAKI-1 renal
SNB-75 CNS = test system: SNB-75 CNS
OVCAR-4 ovarian = test system: OVCAR-4 ovarian
HOP-92 NSCLC = test system: HOP-92 NSCLC
CCRF-CEM leukemia = test system: CCRF-CEM leukemia
RXF 393 renal = test system: RXF 393 renal

## Brc1cccc(Nc2nc(-c3cccs3)nc3ccc(Br)cc23)c1
NCI-H460 lung
  TGI: > 100 µM
MDA-MB-435
  TGI: 37.2 µM
K-562 leukemia
  TGI: > 100 µM
HCC-2998 colon
  TGI: 42.1 µM
MALME-3M melanoma
  TGI: 65.2 µM
OVCAR-8 ovarian
  TGI: > 100 µM
SW-620 colon
  TGI: > 100 µM
NCI-H522 lung
  TGI: 54.9 µM
SF-295 CNS
  TGI: 45.1 µM
HCT-15 colon
  TGI: > 100 µM
SR leukemia
  TGI: > 100 µM
COLO 205 colon
  TGI: > 100 µM
SN12C renal
  TGI: 71.3 µM
OVCAR-5 ovarian
  TGI: 98.2 µM
BT-549 breast
  TGI: > 100 µM
RPMI-8226 leukemia
  TGI: > 100 µM
SF-539 CNS
  TGI: > 100 µM
786-0 renal
  TGI: > 100 µM
NCI-H226 lung
  TGI: > 100 µM
SNB-19 CNS
  TGI: 98.7 µM
UACC-62 melanoma
  TGI: 35.8 µM
NCI/ADR-RES ovarian
  TGI: > 100 µM
SK-OV-3 ovarian
  TGI: > 100 µM
TK-10 renal
  TGI: 88 µM
LOX IMVI melanoma
  TGI: > 100 µM
A549 NSCLC
  TGI: > 100 µM
PC-3 prostate
  TGI: > 100 µM
SK-MEL-2 melanoma
  TGI: 94.5 µM
HS 578T breast
  TGI: > 100 µM
SK-MEL-5 melanoma
  TGI: 30.9 µM
MCF7 breast
  TGI: > 100 µM
MOLT-4 leukemia
  TGI: > 100 µM
SK-MEL-28 melanoma
  TGI: > 100 µM
HL-60(TB) leukemia
  TGI: > 100 µM
MDA-MB-231 breast
  TGI: 64.6 µM
IGROV1 ovarian
  TGI: > 100 µM
SF-268 CNS
  TGI: > 100 µM
U251 CNS
  TGI: > 100 µM
HT29 colon
  TGI: 53 µM
M14 melanoma
  TGI: 71.3 µM
KM12 colon
  TGI: 46.3 µM
T-47D breast
  TGI: > 100 µM
A498 renal
  TGI: > 100 µM
UO-31 renal
  TGI: > 100 µM
ACHN renal
  TGI: 91 µM
UACC-257 melanoma
  TGI: 74 µM
HOP-62 NSCLC
  TGI: > 100 µM
NCI-H23 lung
  TGI: > 100 µM
HCT-116 colon
  TGI: > 100 µM
OVCAR-3 ovarian
  TGI: 82.1 µM
DU-145 prostate
  TGI: > 100 µM
EKVX NSCLC
  TGI: 98.1 µM
CAKI-1 renal
  TGI: 68.5 µM
SNB-75 CNS
  TGI: > 100 µM
OVCAR-4 ovarian
  TGI: > 100 µM
HOP-92 NSCLC
  TGI: > 100 µM
CCRF-CEM leukemia
  TGI: > 100 µM

## CN(C)Cc1c[nH]c2c(NCCN)c3c(c(NCCN)c12)C(=O)c1ccccc1C3=O
NCI-H460 lung
  GI50: 8.04 µM
  TGI: 26.8 µM
MDA-MB-435
  GI50: 1.88 µM
  TGI: 5.2 µM
K-562 leukemia
  GI50: 0.516 µM
  TGI: > 100 µM
HCC-2998 colon
  GI50: 2.45 µM
  TGI: 8.37 µM
MALME-3M melanoma
  GI50: 3.99 µM
  TGI: 18.7 µM
OVCAR-8 ovarian
  GI50: 0.726 µM
  TGI: 11 µM
SW-620 colon
  GI50: 2.35 µM
  TGI: 7.87 µM
NCI-H522 lung
  GI50: 1.13 µM
  TGI: 3.26 µM
SF-295 CNS
  GI50: 2.49 µM
  TGI: 8.45 µM
RXF 393 renal
  GI50: 6.32 µM
  TGI: 18.1 µM
HCT-15 colon
  GI50: 6.97 µM
  TGI: 20 µM
SR leukemia
  TGI: > 100 µM
COLO 205 colon
  GI50: 7.36 µM
SN12C renal
  GI50: 0.372 µM
  TGI: 1.88 µM
OVCAR-5 ovarian
  GI50: 5.68 µM
  TGI: 25.1 µM
BT-549 breast
  GI50: 3.52 µM
  TGI: 9.87 µM
RPMI-8226 leukemia
  GI50: 1.43 µM
  TGI: 6.52 µM
SF-539 CNS
  GI50: 2.83 µM
  TGI: 7.47 µM
786-0 renal
  GI50: 0.71 µM
  TGI: 7.8 µM
NCI-H226 lung
  GI50: 1.56 µM
  TGI: 5.35 µM
SNB-19 CNS
  GI50: 6.52 µM
  TGI: 23 µM
UACC-62 melanoma
  GI50: 1.44 µM
  TGI: 4.18 µM
NCI/ADR-RES ovarian
  GI50: 21.8 µM
  TGI: > 66.1 µM
SK-OV-3 ovarian
  GI50: 8.67 µM
  TGI: 24.1 µM
TK-10 renal
  GI50: 3.25 µM
  TGI: 9.49 µM
LOX IMVI melanoma
  GI50: 0.556 µM
  TGI: 1.88 µM
A549 NSCLC
  GI50: 3.39 µM
  TGI: 16.2 µM
PC-3 prostate
  GI50: 2.34 µM
  TGI: 8.42 µM
SK-MEL-2 melanoma
  GI50: 2.41 µM
  TGI: 8.27 µM
HS 578T breast
  GI50: 3.38 µM
  TGI: 10.9 µM
SK-MEL-5 melanoma
  GI50: 3.86 µM
  TGI: 9.14 µM
MCF7 breast
  GI50: 19 µM
  TGI: 94.1 µM
MOLT-4 leukemia
  GI50: 1.7 µM
  TGI: > 35.7 µM
SK-MEL-28 melanoma
  GI50: 8.8 µM
  TGI: 23.3 µM
MDA-MB-231 breast
  GI50: 0.949 µM
  TGI: 2.86 µM
IGROV1 ovarian
  GI50: 2.1 µM
  TGI: 10.5 µM
SF-268 CNS
  GI50: 3.65 µM
  TGI: 14.7 µM
U251 CNS
  GI50: 0.394 µM
  TGI: 1.87 µM
HT29 colon
  GI50: 3.65 µM
  TGI: 26.5 µM
M14 melanoma
  GI50: 3.51 µM
  TGI: 16.9 µM
KM12 colon
  GI50: 1.59 µM
  TGI: 7.11 µM
T-47D breast
  GI50: 1.82 µM
  TGI: 14 µM
UO-31 renal
  GI50: 8.58 µM
  TGI: 26 µM
ACHN renal
  GI50: 2.12 µM
  TGI: 9.04 µM
UACC-257 melanoma
  GI50: 6.18 µM
  TGI: > 23.8 µM
HOP-62 NSCLC
  GI50: 1.31 µM
  TGI: 6.39 µM
NCI-H23 lung
  GI50: 2.22 µM
  TGI: 8.99 µM
HCT-116 colon
  GI50: 0.625 µM
  TGI: 5.29 µM
OVCAR-3 ovarian
  GI50: 1.74 µM
  TGI: 6.43 µM
DU-145 prostate
  GI50: 5.55 µM
  TGI: 18.7 µM
EKVX NSCLC
  GI50: 2.9 µM
  TGI: 9.36 µM
CAKI-1 renal
  GI50: 20.8 µM
  TGI: 41.7 µM
SNB-75 CNS
  GI50: 6.13 µM
  TGI: 17 µM
OVCAR-4 ovarian
  GI50: 8.07 µM
  TGI: 29.6 µM
HOP-92 NSCLC
  GI50: 1.53 µM
  TGI: 5.49 µM
CCRF-CEM leukemia
  GI50: 1.06 µM
  TGI: 8.93 µM
